Target: Glycylpeptide N-tetradecanoyltransferase 1 (Homo sapiens) (UniProt P30419)
Experiment: Inhibition of recombinant N-terminal his-6 tagged human NMT expressed in Escherichia coli BL21 (DE3)pLysS using peptide substrate preincubated for 5 mins followed by substrate addition and measured after 30 mins by scintillation proximity assay

Chain of Glycylpeptide N-tetradecanoyltransferase 1 (Homo sapiens) (P30419 whole entry, looked up): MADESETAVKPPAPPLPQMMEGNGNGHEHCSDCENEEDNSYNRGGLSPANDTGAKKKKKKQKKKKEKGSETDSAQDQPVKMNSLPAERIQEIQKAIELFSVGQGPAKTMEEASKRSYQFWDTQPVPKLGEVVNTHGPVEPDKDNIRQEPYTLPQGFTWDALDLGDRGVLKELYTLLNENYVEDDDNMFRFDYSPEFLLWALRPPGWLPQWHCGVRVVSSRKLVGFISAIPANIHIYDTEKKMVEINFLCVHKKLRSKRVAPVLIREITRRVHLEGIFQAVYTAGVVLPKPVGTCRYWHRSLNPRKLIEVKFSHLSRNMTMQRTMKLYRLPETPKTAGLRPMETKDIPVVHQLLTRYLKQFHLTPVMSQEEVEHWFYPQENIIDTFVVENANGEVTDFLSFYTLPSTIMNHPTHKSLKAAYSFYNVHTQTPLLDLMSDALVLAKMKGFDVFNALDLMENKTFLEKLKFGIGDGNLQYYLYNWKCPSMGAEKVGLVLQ

Compound | IC50
O=C(Nc1nc2ccccc2s1)[C@H]1CC[C@@H](NCc2ccc3ccccc3c2)CC1 | 286 µM
O=C(Nc1nc2cc(F)ccc2s1)[C@H]1CC[C@@H](NCc2ccc3ccccc3c2)CC1 | 656 µM
CN(C)C(=O)c1ccc2nc(NC(=O)[C@@H]3CCC[C@H](NCc4ccc5ccoc5c4)C3)sc2c1 | 656 µM
